19 compounds from US20130123481A1, “MODIFIED NUCLEOSIDES, NUCLEOTIDES, AND NUCLEIC ACIDS, AND USES THEREOF” (MODERNA THERAPEUTICS, priority 2011, published 2013) can be followed below.

Series [1] deals with peripheral blood mononuclear cells (PBMC). The series can be described thus: In Vitro Screening in PBMC - G-CSF protein expression. The class given is cell-based, human. The settings on record: for G-CSF Protein Expression: 500 ng mRNA. An excerpt:
(§1) The supernatant was harvested and stored frozen until analyzed by ELISA to determine the G-CSF protein expression, and the induction of the cytokines interferon-alpha (IFN-α) and tumor necrosis factor alpha (TNF-α).

A further series deals with rabbit reticulysates. The series can be described thus: G-CSF expression in rabbit reticulysates (ELISA). The settings on record: 250 ng modified G-CSF mRNA in rabbit reticulysates. The class given is biochemical. As for the experimental part: (§2) To assess the activity of all our different chemical modifications in the context of a second open reading frame, we replicated experiments previously conducted using luciferase mRNA, with human G-CSF mRNA. […] The mutant T7 polymerase was obtained commercially (Durascribe® T7 Transcription kit (Cat. No. DS010925) (Epicentre®, Madison, Wis.).
(§3) The modified RNA in Tables 45 and 46 were transfected in vitro in HeLa cells or added to rabbit reticulysates (250 ng of modified mRNA) as indicated. […] In Table 45, “NT” means not tested.

The subject of the next series is HeLa cells. The series can be described thus: G-CSF expression in HeLa cells (ELISA). Also noted: key to Protein (G-CSF; HeLa): the protein production of HeLa is judged by “+,” “+/−” and “−”; the protein production of HeLa is judged by “+,” “+/−” and “−”; the protein production of HeLa is judged by “+,” “+/−” and “−”. The following applies: for G-CSF protein (pg/ml) HeLa cells: fully modified G-CSF mRNA transfected in HeLa cells, ELISA. Type of series: cell-based, human. As for the experimental part:
as §2, §3

The target in the next series is wild-type T7 polymerase (Escherichia phage T7, UniProt P00573). Kind of series: In Vitro Transcription with Wild-Type T7 Polymerase (transcription and capping yield). The settings on record: for In vitro transcription Yield: wild-type T7 polymerase; for In vitro transcription Yield / Capping reaction Yield: OD260; for Capping reaction Yield: enzymatic capping. As for the experimental part:
The luciferase and G-CSF modified mRNA were also subjected to an enzymatic capping reaction and each modified mRNA capping reaction was evaluated for yield by spectrophometic measurement (OD260) and correct size assessed using bioanalyzer.

Series [2] concerns peripheral blood mononuclear cells (PBMC), interferon-alpha (IFN-α). The class given is cell-based, human. The following applies: Table 47 naturally occurring; IFN-alpha, background about 70 pg/ml.
Text: as §1

The test system of series [3] is human embryonic kidney 293 (HEK293) cells. Kind of series: Toxicity of Nucleoside Triphosphates (NTPs), CYTO TOX-GLO assay. The class given is cell-based. The following applies: human. As for the experimental part:
The cytotoxicity of natural and modified nucleoside triphosphates (NTPs) alone or in combination with other bases, was analyzed in human embryonic kidney 293 (HEK293) cells in the absence of transfection reagent. […] 10 ul of the NTPs outlined in Table 12 were combined with 10 ul of lipid dilution and incubated for 30 minutes to form a complex before 80 ul of the HEK293 cell suspension was added to the NTP complex. Natural and modified NTPs were transfected at a concentration of 2.1 nM, 21 nM, 210 nM, 2.1 um, 21 uM, 210 um or 2.1 mM. NTPs in combination were transfected at a total concentration of NTPs of 8.4 nM, 84 nM, 840 nM, 8.4 uM, 84 uM, 840 uM and 8.4 mM.

[4] abbreviates: PBMC Donor 1, 0.4 uL Lipofectamine 2000.

Sequence of wild-type T7 polymerase (P00573 whole entry): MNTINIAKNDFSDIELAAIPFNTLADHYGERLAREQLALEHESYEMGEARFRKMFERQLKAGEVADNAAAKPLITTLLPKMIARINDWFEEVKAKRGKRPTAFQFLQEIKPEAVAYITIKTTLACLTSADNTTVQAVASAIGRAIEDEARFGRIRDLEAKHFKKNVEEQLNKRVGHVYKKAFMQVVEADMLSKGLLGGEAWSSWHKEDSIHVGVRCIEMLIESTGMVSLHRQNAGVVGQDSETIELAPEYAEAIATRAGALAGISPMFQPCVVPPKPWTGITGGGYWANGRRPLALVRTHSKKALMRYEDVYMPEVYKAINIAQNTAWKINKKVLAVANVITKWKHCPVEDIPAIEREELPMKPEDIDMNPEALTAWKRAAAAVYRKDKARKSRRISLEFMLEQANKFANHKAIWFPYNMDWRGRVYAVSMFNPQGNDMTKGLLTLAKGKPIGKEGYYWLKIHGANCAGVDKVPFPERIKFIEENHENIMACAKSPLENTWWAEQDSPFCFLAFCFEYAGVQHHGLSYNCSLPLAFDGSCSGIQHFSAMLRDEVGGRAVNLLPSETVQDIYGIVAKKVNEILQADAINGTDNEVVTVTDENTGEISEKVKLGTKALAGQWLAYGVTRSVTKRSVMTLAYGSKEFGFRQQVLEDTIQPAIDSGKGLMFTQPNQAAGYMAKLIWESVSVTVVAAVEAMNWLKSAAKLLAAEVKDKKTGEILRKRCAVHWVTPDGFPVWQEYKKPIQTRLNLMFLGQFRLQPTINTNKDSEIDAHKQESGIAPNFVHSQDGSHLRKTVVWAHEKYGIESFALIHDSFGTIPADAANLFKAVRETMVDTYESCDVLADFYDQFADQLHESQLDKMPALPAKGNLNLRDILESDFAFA

Consider `Cn1cnc2c(ncn2[C@@H]2O[C@H](CO)[C@@H](O)[C@H]2O)c1=N` [N1-methyladenosine], for which the “G-CSF Protein Expression” value in series [1] (setting [4]) was determined as 182 pg/mL; in series [1] (PBMC Donor 2), 177 pg/mL; in series [1] (PBMC Donor 3), 191 pg/mL.
`COc1cn([C@@H]2O[C@H](CO)[C@@H](O)[C@H]2O)c(=O)[nH]c1=O` [5-methoxyuridine]: the “G-CSF protein (pg/ml) Rabbit reticulysates cells” value in the series with rabbit reticulysates was 201,750 pg/ml. In addition, the “G-CSF protein (pg/ml) HeLa cells” value in the series on HeLa cells is reported as 1,715,909 pg/ml. Moreover, the figures for the “G-CSF Protein Expression” value in series [1] (setting [4]), in series [1] (PBMC Donor 2) and in series [1] (PBMC Donor 3) were 2,964 pg/ml, 1,832 pg/ml and 1,800 pg/ml, respectively.
Take `CNc1ncnc2c1ncn2[C@@H]1O[C@H](CO)[C@@H](O)[C@H]1O` [N6-methyladenosine]: the “G-CSF Protein Expression” value is 100 pg/mL in series [1] (setting [4]), 168 pg/mL in series [1] (PBMC Donor 2) and 200 pg/mL in series [1] (PBMC Donor 3).
As for `O=c1ccn([C@@H]2O[C@H](CO)[C@@H](O)[C@H]2O)c(=S)[nH]1` [2-thiouridine], the “G-CSF protein (pg/ml) Rabbit reticulysates cells” value in the series with rabbit reticulysates is reported as 18,375 pg/ml. In the series on HeLa cells, the “G-CSF protein (pg/ml) HeLa cells” value is on record as 417,273 pg/ml. Further, the “G-CSF Protein Expression” value was 932 pg/mL in series [1] (setting [4]), 1,000 pg/ml in series [1] (PBMC Donor 2) and 600 pg/mL in series [1] (PBMC Donor 3).
On to `O=c1[nH]c(=O)n([C@@H]2O[C@H](CO)[C@@H](O)[C@H]2O)cc1Br` [5-Bromo-uridine], for which, in the series with rabbit reticulysates, the “G-CSF protein (pg/ml) Rabbit reticulysates cells” value is 72,000 pg/ml. Further, in the series on HeLa cells, the “G-CSF protein (pg/ml) HeLa cells” value is given as 186,591 pg/ml.
Regarding `Nc1cnn([C@@H]2O[C@H](CO)[C@@H](O)[C@H]2O)c(=O)n1` [Compound 6-Aza-cytidine, 6-Aza-cytidine], the “IVT (G-CSF), first result” value on wild-type T7 polymerase (Table 48 non-naturally occurring, G-CSF mRNA in vitro transcription, Pass/Fail) is “Fail”. On wild-type T7 polymerase (Table 48 non-naturally occurring, luciferase mRNA in vitro transcription, Pass/Fail), the “IVT (Luc), first result” value is given as “Fail”.
Regarding `Cc1cn([C@@H]2O[C@H](CO)[C@@H](O)[C@H]2O)c(=O)nc1N` [Compound 5-methyl-cytidine, 5-methyl-cytidine], in the series with rabbit reticulysates, the “G-CSF protein (pg/ml) Rabbit reticulysates cells” value is listed as 79,375 pg/ml. Also, the “G-CSF protein (pg/ml) HeLa cells” value in the series on HeLa cells was 646,591 pg/ml.
For the compound `COC(=O)C=Cc1cn([C@@H]2O[C@H](CO)[C@@H](O)[C@H]2O)c(=O)[nH]c1=O` [5-(2-carbomethoxyvinyl)uridine], the figures for the “G-CSF Protein Expression” value in series [1] (setting [4]), in series [1] (PBMC Donor 2) and in series [1] (PBMC Donor 3) were 77 pg/mL, 286 pg/mL and 177 pg/mL, respectively.
In the case of `Nc1nc(=O)n([C@@H]2O[C@H](CO)[C@@H](O)[C@H]2O)cc1C=O` [Compound 5-formyl-cytidine, 5-formyl-cytidine], the “G-CSF protein (pg/ml) Rabbit reticulysates cells” value with rabbit reticulysates is 24,000 pg/ml. Besides, in the series with HeLa cells, the “G-CSF protein (pg/ml) HeLa cells” value came out at 0 pg/mL.
Regarding `O=c1[nH]c(=S)ccn1[C@@H]1O[C@H](CO)[C@@H](O)[C@H]1O` [4-thiouridine], the “G-CSF protein (pg/ml) Rabbit reticulysates cells” value in the series on rabbit reticulysates is recorded as 52,375 pg/ml. The “G-CSF protein (pg/ml) HeLa cells” value in the series with HeLa cells is reported as 107,273 pg/ml. The “G-CSF Protein Expression” value in series [1] (setting [4]) amounted to 5 pg/mL; in series [1] (PBMC Donor 2) it was 391 pg/mL; in series [1] (PBMC Donor 3) it was 218 pg/mL.
On to “N-1-methyladenosine [Compound N-1-methyladenosine]”, for which, on wild-type T7 polymerase (G-CSF mRNA), the “In vitro transcription Yield” value worked out at 0.63 mg.
Take `CNc1ncnc2c1ncn2[C@@H]1O[C@H](CO)[C@@H](O)[C@H]1O` [Compound N6-methyl-adenosine, N6-methyl-adenosine]: the “G-CSF protein (pg/ml) Rabbit reticulysates cells” value in the series with rabbit reticulysates was determined as 0 pg/mL. In the series with HeLa cells, the “G-CSF protein (pg/ml) HeLa cells” value is given as 1,591 pg/ml.
In the case of Luciferase control, in the series with rabbit reticulysates, the “G-CSF protein (pg/ml) Rabbit reticulysates cells” value is 0 pg/mL.
`Cn1cnc2c(ncn2[C@@H]2O[C@H](CO)[C@@H](O)[C@H]2O)c1=N` [Compound N1-methyl-adenosine, N1-methyl-adenosine]: the “G-CSF protein (pg/ml) Rabbit reticulysates cells” value in the series with rabbit reticulysates worked out at 0 pg/mL. The “G-CSF protein (pg/ml) HeLa cells” value with HeLa cells is listed as 4,773 pg/ml.
For `Nc1nc(=O)n([C@@H]2O[C@H](CO)[C@@H](O)[C@H]2O)cc1C=O` [5-formylcytidine], the “G-CSF Protein Expression” value in series [1] (setting [4]) stood at 18 pg/mL; in series [1] (PBMC Donor 2) it was 205 pg/mL; in series [1] (PBMC Donor 3) it was 23 pg/mL.
As for `COC(=O)C=Cc1cn([C@@H]2O[C@H](CO)[C@@H](O)[C@H]2O)c(=O)[nH]c1=O` [5-(2carbomethoxyvinyl) uridine], the “G-CSF protein (pg/ml) Rabbit reticulysates cells” value in the series with rabbit reticulysates stood at 0 pg/mL. Moreover, the “G-CSF protein (pg/ml) HeLa cells” value with HeLa cells is 1,364 pg/ml.
Consider `COC(=O)C=Cc1cn([C@@H]2O[C@H](CO)[C@@H](O)[C@H]2O)c(=O)[nH]c1=O` [5 (2 carbomethoxyvinyl) uridine], for which the “In vitro transcription Yield” value on wild-type T7 polymerase (G-CSF mRNA) is on record as 1.8 mg; on wild-type T7 polymerase (Luciferase mRNA), 0.89 mg. Further, the “Capping reaction Yield” value on wild-type T7 polymerase (G-CSF modified mRNA (wild-type T7)) was 1.28 mg; on wild-type T7 polymerase (Luciferase modified mRNA (wild-type T7)), 0.54 mg.
Regarding `O=c1[nH]c(=S)ccn1[C@@H]1O[C@H](CO)[C@@H](O)[C@H]1O` [4-thiouridine (s^4U)], the “Protein (G-CSF; HeLa)” value with HeLa cells (Table 47 naturally occurring, *** = production seen in cell free translations) is “+”. In addition, the “IVT (G-CSF)” value at wild-type T7 polymerase (Table 47 naturally occurring, G-CSF mRNA in vitro transcription, Pass/Fail) was “Pass”. For the same compound, the “IVT (Luc)” value on wild-type T7 polymerase (Table 47 naturally occurring, luciferase mRNA in vitro transcription, Pass/Fail) is recorded as “Fail”. In series [1] (Table 47 naturally occurring, background about 110 pg/ml), the “Protein (G-CSF; PBMC)” value is reported as “+/− (“+/−” means 150-300 pg/ml G-CSF)”. The “Cytokines (G-CSF; PBMC)” value in series [2] was “++ (“++” means greater than 300 pg/ml IFN-alpha)”.
Turning to `Cc1c[nH]c(=O)nc1N` [5-methyl cytosine], the “percent of viable cells” value came to 92.23% in series [3] (4 h, 2.1 nM); 91.40% in series [3] (4 h, 21 nM); 92.31% in series [3] (4 h, 210 nM); 91.31% in series [3] (4 h, 2.1 uM); 91.16% in series [3] (4 h, 21 uM); 91.54% in series [3] (4 h, 210 uM). The “percent of viable cells” value in series [3] (4 h, 2.1 mM) amounted to 92.01%; in series [3] (24 h, 2.1 nM), 86.35%; in series [3] (24 h, 21 nM), 86.37%; in series [3] (24 h, 210 nM), 84.71%; in series [3] (24 h, 2.1 uM) it was 85.14%; in series [3] (24 h, 21 uM), 84.72%. Besides, the “percent of viable cells” value in series [3] (24 h, 210 uM) worked out at 85.76%; in series [3] (24 h, 2.1 mM), 87.97%; in series [3] (48 h, 2.1 nM), 88.18%; in series [3] (48 h, 21 nM), 87.10%; in series [3] (48 h, 210 nM), 86.44%; in series [3] (48 h, 2.1 uM), 86.18%. Besides, the “percent of viable cells” value was 85.74% in series [3] (48 h, 21 uM); 85.94% in series [3] (48 h, 210 uM); 87.29% in series [3] (48 h, 2.1 mM); 91.93% in series [3] (72 h, 2.1 nM); 92.10% in series [3] (72 h, 21 nM); 89.97% in series [3] (72 h, 210 nM). Besides, the “percent of viable cells” value in series [3] (72 h, 2.1 uM) turned out to be 90.92%; in series [3] (72 h, 21 uM), 92.26%; in series [3] (72 h, 210 uM), 88.10%; in series [3] (72 h, 2.1 mM) it was 96.08%.
